The values that follow come from PubChem BioAssay (NCI).

Among the test systems are A549 NSCLC; ACHN renal; CCRF-CEM leukemia; HT29 colon; K-562 leukemia; MDA-MB-231 breast; NCI-H522 lung; OVCAR-8 ovarian; PC-3 prostate; SF-539 CNS.
Assay in all cases: NCI tumour cell line growth inhibition, 48 h

Molecules are shown by their SMILES.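 In this assay, cells in 96-well plates receive the compound at five concentrations for 48 hours. Endpoints are linearly interpolated between the surrounding concentrations. TGI marks complete inhibition of growth.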

For the molecule `C=C(C)[C@@]1(O)O[C@H]2C[C@@]3(C)OC(=CC3=O)/C(C)=C\[C@@H]3OC(=O)[C@@]1(C)[C@H]32`, the TGI in the assay on A549 NSCLC is over 93.3 µM; in the assay with ACHN renal, over 77.1 µM; in the assay on CCRF-CEM leukemia, 24.1 µM; with HT29 colon, 40.9 µM; in the assay with K-562 leukemia it was 35.4 µM; with MDA-MB-231 breast, 43.9 µM. For the same molecule, the TGI is 15.6 µM with NCI-H522 lung, over 100 µM with OVCAR-8 ovarian, 78.4 µM in the assay with PC-3 prostate and 56 µM in the assay with SF-539 CNS.
Consider `COC(=O)c1c2c(cc3c1CC1(Cc4ccccc4C1=O)C3)CCC2` (stereo not given), for which the TGI in the assay with A549 NSCLC was over 100 µM; in the assay with ACHN renal it was over 100 µM; with CCRF-CEM leukemia it was over 100 µM; with HT29 colon, 96.9 µM; in the assay on K-562 leukemia it was over 100 µM; in the assay on MDA-MB-231 breast it was over 100 µM. For the same molecule, the TGI in the assay with NCI-H522 lung, in the assay with OVCAR-8 ovarian, in the assay on PC-3 prostate and with SF-539 CNS was over 100 µM throughout.
As for `COc1c2cc([N+](=O)[O-])cc1CNC(=O)CN1CCOCCOCCN(CCOCCOCC1)CC(=O)NC2`, the TGI in the assay on A549 NSCLC, in the assay on ACHN renal, in the assay with CCRF-CEM leukemia, in the assay on HT29 colon, in the assay with K-562 leukemia and in the assay with MDA-MB-231 breast was over 100 µM in each case. In addition, the TGI in the assay on NCI-H522 lung, in the assay on OVCAR-8 ovarian and in the assay on PC-3 prostate was over 100 µM throughout.
For the molecule `CCOc1cc2c(cc1O)/C(=N\N)C[C@@H]1[C@@H]2CC[C@]2(C)[C@@H](O)CC[C@@H]12`, the TGI with A549 NSCLC was over 100 µM; with ACHN renal, over 100 µM; with CCRF-CEM leukemia, over 100 µM; with HT29 colon it was 30.8 µM; in the assay with K-562 leukemia, over 100 µM; in the assay on MDA-MB-231 breast, over 42.9 µM. Besides, the TGI in the assay with NCI-H522 lung was 5.58 µM; in the assay on OVCAR-8 ovarian, over 42.9 µM; in the assay with PC-3 prostate, over 80.1 µM; in the assay with SF-539 CNS, 38 µM.
As for `O=C1C(N2CCCC2)=CC(=O)c2c(O)c(N3CCCC3)c(Cl)c(O)c21`, the TGI in the assay on A549 NSCLC, in the assay with ACHN renal, with CCRF-CEM leukemia, with HT29 colon, in the assay on K-562 leukemia and in the assay on MDA-MB-231 breast was over 10 µM throughout. The TGI in the assay with NCI-H522 lung, in the assay with PC-3 prostate and in the assay with SF-539 CNS was over 10 µM in each case.
Take `CNC(=O)c1ccccc1-[s+]1c2ccccc2c(=O)n1C` (stereo not given): the TGI in the assay on A549 NSCLC, with ACHN renal, with CCRF-CEM leukemia, with HT29 colon, with K-562 leukemia and with MDA-MB-231 breast was over 100 µM each time. In addition, the TGI with NCI-H522 lung, in the assay on OVCAR-8 ovarian, with PC-3 prostate and in the assay with SF-539 CNS was over 100 µM each time.
Turning to `O=C1c2ccccc2C(=O)N1n1c(Cc2ccccc2)n[nH]c1=O`, the TGI in the assay on A549 NSCLC, in the assay on ACHN renal, in the assay with CCRF-CEM leukemia, in the assay with HT29 colon, with K-562 leukemia and in the assay with MDA-MB-231 breast was over 100 µM in each case. Moreover, the TGI in the assay on OVCAR-8 ovarian, in the assay with PC-3 prostate and with SF-539 CNS was over 100 µM throughout.
With `c1ccc(C2=NC3(CCCCC3)N(c3nc4ccccc4s3)N2)nc1`, the TGI in the assay with A549 NSCLC is over 100 µM; in the assay with ACHN renal it was over 100 µM; in the assay with CCRF-CEM leukemia, 87.2 µM; in the assay with HT29 colon, 58 µM; in the assay with K-562 leukemia it was over 100 µM; in the assay with MDA-MB-231 breast it was 64.7 µM. Besides, the TGI in the assay with NCI-H522 lung was over 100 µM; in the assay with OVCAR-8 ovarian it was over 100 µM; in the assay with PC-3 prostate it was 46.9 µM; in the assay on SF-539 CNS, over 100 µM.
For the molecule `O=c1c2ccccc2oc2nc3n(c(=O)c12)CCCS3`, the TGI in the assay on A549 NSCLC, in the assay on ACHN renal, with CCRF-CEM leukemia, in the assay on K-562 leukemia, in the assay with MDA-MB-231 breast and in the assay on NCI-H522 lung was over 100 µM each time. In addition, the TGI with OVCAR-8 ovarian, with PC-3 prostate and with SF-539 CNS was over 100 µM throughout.
With `C=CCNC(=S)Nc1sc2c(c1C(=O)OCC)CC(C)CC2` (stereo not given), the TGI is 60.8 µM in the assay with A549 NSCLC; 53.6 µM in the assay with ACHN renal; 47.1 µM in the assay on HT29 colon; over 100 µM with K-562 leukemia; 57 µM with MDA-MB-231 breast; 46.4 µM in the assay on NCI-H522 lung. The TGI with OVCAR-8 ovarian is over 100 µM; in the assay on PC-3 prostate it was 50 µM.
Take `O=C(Cc1ccccc1)NCCc1ccc(O)c(O)c1`: the TGI is over 100 µM with A549 NSCLC; over 100 µM in the assay on ACHN renal; 24.3 µM in the assay with CCRF-CEM leukemia; over 100 µM in the assay on HT29 colon; 39.8 µM in the assay on K-562 leukemia; over 100 µM in the assay with MDA-MB-231 breast. Also, the TGI in the assay on NCI-H522 lung, in the assay with OVCAR-8 ovarian, with PC-3 prostate and in the assay with SF-539 CNS was over 100 µM each time.
As to `CC1=NN(c2nc(N)nc(-c3ccccc3S(N)(=O)=O)n2)C(C)(C)C1`, the TGI in the assay with ACHN renal is 82.1 µM; in the assay with CCRF-CEM leukemia, over 100 µM; with HT29 colon it was over 100 µM; in the assay on K-562 leukemia it was over 100 µM; in the assay on MDA-MB-231 breast, over 100 µM; with NCI-H522 lung, over 100 µM. Also, the TGI with OVCAR-8 ovarian, with PC-3 prostate and in the assay on SF-539 CNS was over 100 µM each time.
On to `OCC1OC(c2scc3c(=S)nc[nH]c23)C(O)C1O` (stereo not given), for which the TGI in the assay with A549 NSCLC was over 100 µM; in the assay on ACHN renal, over 67.8 µM; in the assay on CCRF-CEM leukemia, over 100 µM; in the assay on HT29 colon it was 70.1 µM; in the assay with K-562 leukemia it was over 100 µM; with MDA-MB-231 breast, over 69.2 µM. Also, the TGI was 82.4 µM with NCI-H522 lung, 39.6 µM in the assay on OVCAR-8 ovarian, over 84.9 µM with PC-3 prostate and 57.6 µM in the assay with SF-539 CNS.
As for `O=C(COc1ccc(OCC(=O)N2C(=O)CC(=O)N(c3ccccc3)C2=S)cc1)N1C(=O)CC(=O)N(c2ccccc2)C1=S`, the TGI in the assay with A549 NSCLC, with ACHN renal, in the assay on HT29 colon, with K-562 leukemia, in the assay with MDA-MB-231 breast and in the assay on NCI-H522 lung was over 100 µM throughout. The molecule further yielded a TGI in the assay on PC-3 prostate of over 100 µM.
